{"source": "patent US7084154B2", "about": "“2-(aminomethyl) arylamide analgesics” (Pharmacopeia Drug Disclovery, Inc., priority 2003, dated 2006)", "system": "male mice (strain ICR)", "test": "Formalin paw licking test in mice", "assay_type": "in vivo", "conditions": "10 mg/kg i.v. in saline, 15 minutes before sub-plantar 3% formalin; compared to vehicle control", "experimental": "The activity of the compounds in the in vitro screen was confirmed in vivo. Compound 103 was dissolved in saline and administrated to male mice (strain ICR) at 10 mg/kg i.v. in the tail vein. After 15 minutes, a 3% solution of formalin was administered sub-plantar and the time spent licking the paw was monitored in 5 minute segments over a 45 minute period. The experiment was conducted on 1–6 mice per group and compared to a control set (5 mice), which were given the vehicle alone prior to formalin injection. The first phase response was reduced by approximately 50%. The person of skill in the art would accept this test as predictive of therapeutic utility for analgesia.", "data": [{"smiles": "CC1c2cc(O)ccc2CCN1Cc1ccccc1C(=O)NCC/C=C/c1ccccc1", "note": "(stereo not shown) [Compound 103, 2-(7-hydroxy-1-methyl-3,4-dihydro-1H-isoquinolin-2-ylmethyl)-N-(4-phenyl-but-3-enyl)-benzamide]", "values": [{"measurement": "reduction of first phase response (time spent licking the paw)", "result": "approximately 50%"}]}]}
